The source made the active and inactive calls. Rule as the data show it, for most assays here: actives have a measured EC50 and inactives only a lower limit.
Tests used:
[1] = target: Luciferin 4-monooxygenase (Photinus pyralis, UniProt P08659); test: inhibition of purified Photinus pyralis luciferase – biochemical, luminescence, dose response (AID 1891)
[2] = Luminescence Cell-Based Dose Confirmation HTS to Identify Inhibitors of Platelet Dense Granule Release. [Related pubchem assays: 1663 (Primary HTS), 1678 (Summary of Project)]; assay type: functional
[3] = system: BJ; test: cells; assay type: functional, cell-based; details: Homo sapiens
[4] = system: BJ; test: BJ-TERT fibroblast viability loss – cell-based, RAS-independent, luminescence, dose response (AID 1933); assay type: functional; details: Homo sapiens
[5] = NIH-3T3 fibroblast cytotoxicity, dose response, cytotoxicity control, cell-based, fluorescence, Alamar Blue, secondary assay (AID 2327); assay type: functional;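 also: NIH-3T3 mouse fibroblasts cultured with fluconazole at 8 µg/mL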
[6] = system: BJ; test: BJ-TERT-LT-ST fibroblast viability loss – cell-based, RAS-independent, luminescence, dose response (AID 1935); assay type: functional; details: Homo sapiens;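 also: BJ fibroblasts immortalized with TERT plus LT and ST oncogenes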
[7] = DRD fibroblast viability loss – cell-based, non-viral oncogenic, luminescence, dose response (AID 1934); assay type: functional; details: Homo sapiens
[8] = target: Heat shock protein HSP 90-alpha (Homo sapiens, UniProt P07900); assay type: functional, organism-based
[9] = target: T1, Fatty acid synthase (Homo sapiens, UniProt P49327); test: inhibition of human FAS-TE enzyme activity – biochemical, kinetic fluorescence intensity, dose response (AID 624326); assay type: functional;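 also: rate of fluorescence rise from hydrolysis of a fluorogenic O-methyl fluorescein ester substrate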
[10] = target: T1, Fatty acid synthase; test: inhibition of human FAS-TE enzyme activity – biochemical, endpoint fluorescence intensity, uHTS hits, dose response (AID 624327); assay type: functional;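 also: fluorescence from hydrolysis of an O-methyl fluorescein acyl ester substrate by the enzyme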
[11] = target: Large T antigen (Simian virus 40, UniProt P03070); assay type: functional, Betapolyomavirus macacae;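 also: Confirmatory-stage PubChem screen for compounds that inhibit SV40 T antigen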
[12] = alpha-synuclein stem-loop luciferase translation blockers – H4 neuroglioma cells, luminescence, confirmation (AID 1988); assay type: functional, cell-based
[13] = Luminescence Cell-Based Dose Response HTS to Identify Inhibitors of 5'UTR Stem-Loop Driven Prion Protein mRNA Translation in H4 Neuroglioblastoma Cells. [Related pubchem assays: 1827 (Project Summary), 1813 (Primary HTS)]; assay type: functional
[14] = fluconazole-exposed Candida albicans growth modulators – fluorescence, retest, confirmation (AID 2467); assay type: functional, cell-based
[15] = luciferase reporter signal suppression in cells – H4 neuroglioma cells, luminescence, dose response (AID 1990); assay type: functional, cell-based

T1 sequence (P49327 whole entry): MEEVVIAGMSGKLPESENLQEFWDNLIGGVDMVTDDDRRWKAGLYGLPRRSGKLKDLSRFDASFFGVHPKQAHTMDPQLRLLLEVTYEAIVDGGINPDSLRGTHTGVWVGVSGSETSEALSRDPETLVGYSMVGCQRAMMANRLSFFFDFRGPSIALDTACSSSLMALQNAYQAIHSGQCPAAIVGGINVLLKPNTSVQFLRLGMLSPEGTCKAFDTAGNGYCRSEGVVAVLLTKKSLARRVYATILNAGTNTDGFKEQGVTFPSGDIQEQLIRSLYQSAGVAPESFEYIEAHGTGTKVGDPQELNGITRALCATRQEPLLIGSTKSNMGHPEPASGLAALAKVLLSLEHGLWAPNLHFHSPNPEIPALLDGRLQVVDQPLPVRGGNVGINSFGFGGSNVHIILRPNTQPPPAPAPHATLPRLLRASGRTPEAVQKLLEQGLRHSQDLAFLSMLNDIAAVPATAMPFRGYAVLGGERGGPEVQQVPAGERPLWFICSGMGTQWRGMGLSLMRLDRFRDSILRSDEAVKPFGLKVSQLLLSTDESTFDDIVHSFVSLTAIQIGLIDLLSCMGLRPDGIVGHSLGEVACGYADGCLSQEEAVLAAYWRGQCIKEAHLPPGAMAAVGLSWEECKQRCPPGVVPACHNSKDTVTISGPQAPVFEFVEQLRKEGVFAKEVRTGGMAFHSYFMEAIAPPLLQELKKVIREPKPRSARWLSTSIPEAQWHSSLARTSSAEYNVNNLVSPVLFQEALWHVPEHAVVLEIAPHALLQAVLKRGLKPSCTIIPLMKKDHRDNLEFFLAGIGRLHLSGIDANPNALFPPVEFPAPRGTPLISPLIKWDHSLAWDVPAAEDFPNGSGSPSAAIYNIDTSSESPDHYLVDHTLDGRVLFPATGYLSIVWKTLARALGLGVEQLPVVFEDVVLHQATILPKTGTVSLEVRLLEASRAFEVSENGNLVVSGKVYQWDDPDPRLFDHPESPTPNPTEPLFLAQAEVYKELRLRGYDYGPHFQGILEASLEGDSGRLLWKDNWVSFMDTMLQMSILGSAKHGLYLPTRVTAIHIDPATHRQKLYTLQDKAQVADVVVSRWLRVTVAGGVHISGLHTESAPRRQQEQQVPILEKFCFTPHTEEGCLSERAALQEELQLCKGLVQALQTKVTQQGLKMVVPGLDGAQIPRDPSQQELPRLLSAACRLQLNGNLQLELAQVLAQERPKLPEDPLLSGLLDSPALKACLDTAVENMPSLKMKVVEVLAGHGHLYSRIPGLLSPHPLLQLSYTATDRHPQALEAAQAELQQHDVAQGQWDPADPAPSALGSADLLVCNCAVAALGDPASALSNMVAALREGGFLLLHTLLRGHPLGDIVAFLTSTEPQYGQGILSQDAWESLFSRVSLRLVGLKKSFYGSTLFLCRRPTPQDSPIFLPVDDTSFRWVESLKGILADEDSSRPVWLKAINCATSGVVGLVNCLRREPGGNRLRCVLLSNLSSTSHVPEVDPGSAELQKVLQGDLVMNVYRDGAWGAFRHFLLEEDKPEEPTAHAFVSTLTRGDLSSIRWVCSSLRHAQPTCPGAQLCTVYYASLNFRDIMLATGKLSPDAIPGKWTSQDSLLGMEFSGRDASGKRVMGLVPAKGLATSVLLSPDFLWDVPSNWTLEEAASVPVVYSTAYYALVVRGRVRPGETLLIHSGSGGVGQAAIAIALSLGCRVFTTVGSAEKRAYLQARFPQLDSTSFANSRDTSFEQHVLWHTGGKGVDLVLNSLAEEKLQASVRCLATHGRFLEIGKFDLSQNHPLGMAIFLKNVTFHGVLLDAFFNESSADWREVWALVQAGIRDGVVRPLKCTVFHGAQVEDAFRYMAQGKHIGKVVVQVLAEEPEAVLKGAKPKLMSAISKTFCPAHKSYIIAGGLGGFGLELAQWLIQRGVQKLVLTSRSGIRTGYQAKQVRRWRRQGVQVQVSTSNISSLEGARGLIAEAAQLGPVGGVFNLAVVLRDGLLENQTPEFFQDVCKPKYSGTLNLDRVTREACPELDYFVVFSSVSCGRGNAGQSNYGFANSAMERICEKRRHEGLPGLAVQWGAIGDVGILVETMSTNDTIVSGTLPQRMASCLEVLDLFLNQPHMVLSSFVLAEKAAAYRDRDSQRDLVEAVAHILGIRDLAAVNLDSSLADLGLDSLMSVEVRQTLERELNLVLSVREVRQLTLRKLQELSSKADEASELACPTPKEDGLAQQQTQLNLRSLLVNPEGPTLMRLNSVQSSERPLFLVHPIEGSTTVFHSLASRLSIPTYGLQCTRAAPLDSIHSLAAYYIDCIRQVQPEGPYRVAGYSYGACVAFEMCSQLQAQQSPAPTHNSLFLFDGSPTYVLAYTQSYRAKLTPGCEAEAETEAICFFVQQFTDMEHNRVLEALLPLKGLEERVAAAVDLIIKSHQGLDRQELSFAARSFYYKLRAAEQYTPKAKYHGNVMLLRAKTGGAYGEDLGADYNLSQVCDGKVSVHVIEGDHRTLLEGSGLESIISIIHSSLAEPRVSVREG
Sequence of Luciferin 4-monooxygenase (P08659 whole entry): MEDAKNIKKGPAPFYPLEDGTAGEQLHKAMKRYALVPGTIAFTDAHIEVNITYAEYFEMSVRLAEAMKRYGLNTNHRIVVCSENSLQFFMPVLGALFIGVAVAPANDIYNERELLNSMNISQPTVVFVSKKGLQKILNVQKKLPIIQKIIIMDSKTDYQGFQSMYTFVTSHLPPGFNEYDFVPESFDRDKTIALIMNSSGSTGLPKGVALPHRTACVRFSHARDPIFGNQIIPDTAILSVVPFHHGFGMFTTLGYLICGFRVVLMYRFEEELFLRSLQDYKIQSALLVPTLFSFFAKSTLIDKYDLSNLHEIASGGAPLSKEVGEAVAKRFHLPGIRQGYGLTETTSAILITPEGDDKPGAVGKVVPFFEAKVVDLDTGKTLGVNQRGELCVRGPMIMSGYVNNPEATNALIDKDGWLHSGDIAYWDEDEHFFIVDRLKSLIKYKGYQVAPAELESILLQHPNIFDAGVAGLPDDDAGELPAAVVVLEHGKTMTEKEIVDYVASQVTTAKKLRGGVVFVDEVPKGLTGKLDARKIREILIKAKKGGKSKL
Sequence of Large T antigen (P03070 whole entry): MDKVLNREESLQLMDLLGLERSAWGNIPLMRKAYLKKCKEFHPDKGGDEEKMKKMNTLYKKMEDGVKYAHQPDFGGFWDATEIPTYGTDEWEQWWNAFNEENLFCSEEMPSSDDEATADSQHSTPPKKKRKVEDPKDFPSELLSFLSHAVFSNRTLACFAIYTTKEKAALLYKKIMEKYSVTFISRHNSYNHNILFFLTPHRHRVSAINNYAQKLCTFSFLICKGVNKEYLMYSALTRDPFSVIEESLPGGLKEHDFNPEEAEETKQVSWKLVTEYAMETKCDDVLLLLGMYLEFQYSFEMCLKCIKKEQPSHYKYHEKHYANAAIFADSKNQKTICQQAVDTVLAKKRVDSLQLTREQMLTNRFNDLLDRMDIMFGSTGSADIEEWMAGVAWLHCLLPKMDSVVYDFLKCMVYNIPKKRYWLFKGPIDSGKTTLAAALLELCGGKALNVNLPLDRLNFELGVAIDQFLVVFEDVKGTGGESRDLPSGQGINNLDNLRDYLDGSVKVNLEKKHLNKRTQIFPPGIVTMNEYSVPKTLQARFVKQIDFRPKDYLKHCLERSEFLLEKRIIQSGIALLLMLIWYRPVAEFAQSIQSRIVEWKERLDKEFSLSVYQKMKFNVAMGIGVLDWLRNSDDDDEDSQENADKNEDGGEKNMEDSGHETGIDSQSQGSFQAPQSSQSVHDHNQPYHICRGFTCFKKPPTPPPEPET

## Cn1cc(S(=O)(=O)N2CCOCC2)cc1C(=O)Nc1cccc(Cl)c1
[1]
  EC50: > 112 µM (not active)
[2]
  EC50: > 112 µM (not active)

## O=C1C2CCN(CC2)C1Cc1ccc(OCCOc2ccccc2)cc1 (stereo not drawn)
[3]
  EC50: > 150 µM (not active)
[4]
  EC50: > 150 µM (not active)
[5]
  EC50: 30.6 µM (active)
[6]
  EC50: > 150 µM (not active)
[7]
  EC50: > 150 µM (not active)

## Cc1nn(-c2ccc([N+](=O)[O-])cc2)c(O)c1/C=N/CCN1CCN(C(=O)c2ccccc2F)CC1
[8]
  AC50: 5.72 µM (active)

## O=S(=O)(Nc1ccc2c(c1)OCCO2)c1ccc2oc3ccccc3c2c1
[9]
  IC50: 7.42 µM (active)
[10]
  IC50: 8 µM (active)

## O=S(=O)(c1ccc(-c2csc(-c3cccnc3)n2)cc1)N1CCOCC1
[9]
  IC50: 4.92 µM (active)

## COc1cccc(C(c2sc3ncnn3c2O)N2CCN(C(=O)c3ccco3)CC2)c1 (stereo not drawn)
[1]
  EC50: > 112 µM (not active)
[2]
  EC50: > 112 µM (not active)

## OCCSc1nncn1/N=C/c1c[nH]c2ccccc12
[1]
  EC50: > 112 µM (not active)
[2]
  EC50: > 112 µM (not active)

## COc1cccc(NC(=O)c2ccc3c(c2)OCCO3)c1
[3]
  EC50: 18.2 µM (active)
[4]
  EC50: 20.9 µM (active)
[1]
  EC50: 4.7 µM (active)
[2]
  EC50: 3.52 µM (active)
[6]
  EC50: > 150 µM (inconclusive)
[7]
  EC50: 15.7 µM (active)

## N#CSCC(=O)c1cccc2ccccc12
[11]
  IC50: 20.6 µM (active)
[8]
  AC50: 1.61 µM (active)

## CC(NC(=O)c1ccc([N+](=O)[O-])cc1Cl)C1CC2CCC1C2 (stereo not drawn)
[9]
  IC50: 11.1 µM (active)
[10]
  IC50: 9.39 µM (active)

## CCOc1cc(/C=N/Nc2nc(C)cc(O)n2)ccc1O
[11]
  IC50: 24.9 µM (active)

## COc1ccc(-c2nn(-c3ccccc3)cc2/C=N/NC(=S)NC(C)C)cc1OC
[12]
  EC50: 48.4 µM (active)
[13]
  EC50: > 120 µM (not active)
[5]
  EC50: 22.9 µM (active)
[14]
  EC50: > 38 µM (not active)
[15]
  EC50: 20.2 µM (active)

## O=C(Cn1cc([N+](=O)[O-])cn1)N1CCc2ccccc2C1
[9]
  IC50: 7.62 µM (active)
[10]
  IC50: 11.1 µM (active)

## O=C(Nc1ccc(C(F)(F)F)cc1)c1cccc(-n2cnnn2)c1
[9]
  IC50: 5.97 µM (active)
[10]
  IC50: 11.1 µM (active)

## O=C(C1CC1)N1CCN(c2ccc(O)cc2)CC1
[11]
  IC50: 11.5 µM (active)

## Oc1ccc(Nc2nc(NCC3CCCO3)c3ccccc3n2)cc1 (stereo not drawn)
[11]
  IC50: 9.48 µM (active)

## CCc1cc(C(=O)N/N=C/c2ccc(O)cc2)c2ccccc2n1
[11]
  IC50: > 100 µM (active)
